Test results: patent US10287301B2 (Achillion Pharmaceuticals, Inc., priority 2015, dated 2019)

These compounds were tested against Human Factor D (Homo sapiens (Human), UniProt P00746) (assay: Human Factor D Assay). Conditions: Human Factor D, Table 3; read-out: IC50.
Chain of Human Factor D (P00746 26-253): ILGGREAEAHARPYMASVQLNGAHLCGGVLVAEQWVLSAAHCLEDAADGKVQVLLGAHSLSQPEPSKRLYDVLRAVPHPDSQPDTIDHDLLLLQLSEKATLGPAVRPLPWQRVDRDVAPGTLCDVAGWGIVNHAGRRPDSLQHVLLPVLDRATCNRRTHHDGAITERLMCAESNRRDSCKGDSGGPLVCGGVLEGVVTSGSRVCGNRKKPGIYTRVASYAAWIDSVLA
Type: biochemical
Method in brief: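 Thioesterase activity monitored with Z-L-Lys-SBzl plus Ellman's reagent (DTNB), each 100 μM final, after 5 min room-temperature compound preincubation of 80 nM human serum Factor D in pH 7.5 Tris (50 mM)/1M NaCl.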
`CC(=O)c1nn(CC(=O)N2C3CC[C@@H](C3)[C@H]2C(=O)Nc2nc(Br)ccc2C)c2ccc(-c3cnc(C)nc3)cc12` [Compound 617, (3S,4S)-2-(2-(3-Acetyl-5-(2-methylpyrimidin-5-yl)-1H-indazol-1-yl)acetyl)-N-(6-bromo-3-methylpyridin-2-yl)-2-azabicyclo[2.2.1]heptane-3-carboxamide] showed an IC50 of less than 1 µM. Compound `CC(=O)c1nn(CC(=O)N2[C@H](C(=O)Nc3nc(Br)ccc3C)C[C@@]3(C)C[C@@H]23)c2ccc(-c3cnc(N)nc3)cc12` [Compound 620, (1R,3S,5R)-2-(2-(3-Acetyl-5-(2-aminopyrimidin-5-yl)-1H-indazol-1-yl)acetyl)-N-(6-bromo-3-methylpyridin-2-yl)-5-methyl-2-azabicyclo[3.1.0]hexane-3-carboxamide] has an IC50 of less than 1 µM. With `CC(=O)c1nn(CC(=O)N2[C@H](C(=O)NCC(F)=C(C)C)C[C@@]3(C)C[C@@H]23)c2ccc(-c3cnc(C)nc3)cc12` [Compound 621, (1R,3S,5R)-2-(2-(3-acetyl-5-(2-methylpyrimidin-5-yl)-1H-indazol-1-yl)acetyl)-N-(2-fluoro-3-methylbut-2-en-1-yl)-5-methyl-2-azabicyclo[3.1.0] hexane-3-carboxamide] the IC50 was less than 1 µM. `CC(=O)c1nn(CC(=O)N2[C@H](C(=O)N[C@@H](C)C(F)=C(C)C)C[C@@]3(C)C[C@@H]23)c2ccc(-c3cnc(C)nc3)cc12` [Compound 622, (1R,3S,5R)-2-(2-(3-acetyl-5-(2-methylpyrimidin-5-yl)-1H-indazol-1-yl)acetyl)-N-((S)-3-fluoro-4-methylpent-3-en-2-yl)-5-methyl-2-azabicyclo[3.1.0] hexane-3-carboxamide] was tested, and the IC50 was less than 1 µM. `CC(=O)c1nn(CC(=O)N2[C@H](C(=O)N[C@H](C)C(F)=C(C)C)C[C@@]3(C)C[C@@H]23)c2ccc(-c3cnc(C)nc3)cc12` [Compound 623, (1R,3S,5R)-2-(2-(3-acetyl-5-(2-methylpyrimidin-5-yl)-1H-indazol-1-yl)acetyl)-N-((R)-3-fluoro-4-methylpent-3-en-2-yl)-5-methyl-2-azabicyclo[3.1.0] hexane-3-carboxamide] showed an IC50 of less than 1 µM. With `CC(=O)c1nn(CC(=O)N2[C@H](C(=O)Nc3cccc(OC(F)(F)F)n3)C[C@@]3(C)C[C@@H]23)c2ccc(-c3cnc(C)nc3)cc12` [Compound 624, (1R,3S,5R)-2-(2-(3-acetyl-5-(2-methylpyrimidin-5-yl)-1H-indazol-1-yl)acetyl)-5-methyl-N-(6-(trifluoromethoxy)pyridin-2-yl)-2-azabicyclo[3.1.0] hexane-3-carboxamide] the IC50 was less than 1 µM. With `CC(=O)c1nn(CC(=O)N2[C@H](C(=O)Nc3ccn(CC(F)(F)F)n3)C[C@@]3(C)C[C@@H]23)c2ccc(-c3cnc(C)nc3)cc12` [Compound 625] the IC50 was less than 1 µM. With `CC(=O)c1nn(CC(=O)N2[C@H](C(=O)Nc3cccc(OC(F)(F)F)c3F)C[C@@]3(C)C[C@@H]23)c2ccc(-c3cnc(C)nc3)cc12` [Compound 630, (1R,3S,5R)-2-(2-(3-acetyl-5-(2-methylpyrimidin-5-yl)-1H-indazol-1-yl)acetyl)-N-(2-fluoro-3-(trifluoromethoxy)phenyl)-5-methyl-2-azabicyclo[3.1.0] hexane-3-carboxamide] the IC50 was less than 1 µM. `CC(=O)c1nn(CC(=O)N2[C@H](C(=O)Nc3cccc(C(F)(F)F)n3)C[C@@]3(C)C[C@@H]23)c2ccc(-c3cnc(C)nc3)cc12` [Compound 631, (1R,3S,5R)-2-(2-(3-acetyl-5-(2-methylpyrimidin-5-yl)-1H-indazol-1-yl)acetyl)-5-methyl-N-(6-(trifluoromethyl)pyridin-2-yl)-2-azabicyclo[3.1.0] hexane-3-carboxamide] was tested, and the IC50 was less than 1 µM. `COc1ncc(-c2ccc3c(c2)c(C(C)=O)nn3CC(=O)N2[C@H](C(=O)Nc3nc(Br)ccc3C)C[C@@]3(C)C[C@@H]23)cn1` [Compound 632, (1R,3S,5R)-2-(2-(3-Acetyl-5-(2-methoxypyrimidin-5-yl)-1H-indazol-1-yl)acetyl)-N-(6-bromo-3-methylpyridin-2-yl)-5-methyl-2-azabicyclo[3.1.0]hexane-3-carboxamide] showed an IC50 of less than 1 µM. Work on `CC(=O)c1nn(CC(=O)N2C[C@H](F)C[C@H]2C(=O)Nc2cccc(Br)n2)c2cnc(-c3cnc(C)nc3)cc12` [Compound 633, (2S,4R)-1-(2-(3-Acetyl-5-(2-methylpyrimidin-5-yl)-1H-pyrazolo[3,4-c]pyridin-1-yl)acetyl)-N-(6-bromopyridin-2-yl)-4-fluoropyrrolidine-2-carboxamide] yielded an IC50 of less than 1 µM. Work on `COc1ncc(-c2ccc3c(c2)c(C(C)=O)nn3CC(=O)N2C[C@H]3C[C@H]3[C@H]2C(=O)Nc2nc(Br)ccc2C)cn1` [Compound 634, (1R,2S,5S)-3-(2-(3-Acetyl-5-(2-methoxypyrimidin-5-yl)-1H-indazol-1-yl)acetyl)-N-(6-bromo-3-methylpyridin-2-yl)-3-azabicyclo[3.1.0]hexane-2-carboxamide] yielded an IC50 of less than 1 µM. `CC(=O)c1nn(CC(=O)N2C[C@H]3C[C@H]3[C@H]2C(=O)Nc2nc(Br)ccc2C)c2ccc(-c3cnc(N)nc3)cc12` [Compound 635, (1R,2S,5S)-3-(2-(3-Acetyl-5-(2-aminopyrimidin-5-yl)-1H-indazol-1-yl)acetyl)-N-(6-bromo-3-methylpyridin-2-yl)-3-azabicyclo[3.1.0]hexane-2-carboxamide] was tested, and the IC50 was less than 1 µM. Compound `CC(=O)c1nn(CC(=O)N2[C@H](C(=O)Nc3nc(Br)ccc3C)C[C@@]3(C)C[C@@H]23)c2c(C)cc(-c3cnc(C)nc3)cc12` [Compound 636, (1R,3S,5R)-2-(2-(3-Acetyl-7-methyl-5-(2-methylpyrimidin-5-yl)-1H-indazol-1-yl)acetyl)-N-(6-bromo-3-methylpyridin-2-yl)-5-methyl-2-azabicyclo[3.1.0]hexane-3-carboxamide] has an IC50 of less than 1 µM. Work on `CC(=O)c1nn(CC(=O)N2C[C@H]3C[C@H]3[C@H]2C(=O)Nc2nc(Br)ccc2C2CC2)c2ccc(-c3cnc(C)nc3)cc12` [Compound 637, (1R,2S,5S)-3-(2-(3-Acetyl-5-(2-methylpyrimidin-5-yl)-1H-indazol-1-yl)acetyl)-N-(6-bromo-3-cyclopropylpyridin-2-yl)-3-azabicyclo[3.1.0]hexane-2-carboxamide] yielded an IC50 of less than 1 µM. In the case of `CC(=O)c1nn(CC(=O)N2C[C@H]3C[C@H]3[C@H]2C(=O)Nc2ccn(CC(F)(F)F)n2)c2ccc(-c3cnc(C)nc3)cc12` [Compound 638, (1R,2S,5S)-3-(2-(3-Acetyl-5-(2-methylpyrimidin-5-yl)-1H-indazol-1-yl)acetyl)-N-(1-(2,2,2-trifluoroethyl)-1H-pyrazol-3-yl)-3-azabicyclo[3.1.0]hexane-2-carboxamide], the IC50 is reported as less than 1 µM. In the case of `CC(=O)c1nn(CC(=O)N2C[C@@](F)(CN(C)C)C[C@H]2C(=O)Nc2cccc(Br)n2)c2ccc(-c3cnc(C)nc3)cc12` [Compound 639, (2S,4S)-1-(2-(3-Acetyl-5-(2-methylpyrimidin-5-yl)-1H-indazol-1-yl)acetyl)-N-(6-bromopyridin-2-yl)-4-((dimethylamino)methyl)-4-fluoropyrrolidine-2-carboxamide], the IC50 is reported as less than 1 µM. Work on `CC(=O)c1nn(CC(=O)N2[C@H](C(=O)Nc3cncc(C(F)(F)F)n3)C[C@@]3(C)C[C@@H]23)c2ccc(-c3cnc(C)nc3)cc12` [Compound 640, (1R,3S,5R)-2-(2-(3-acetyl-5-(2-methylpyrimidin-5-yl)-1H-indazol-1-yl)acetyl)-5-methyl-N-(6-(trifluoromethyl)pyrazin-2-yl)-2-azabicyclo[3.1.0] hexane-3-carboxamide] yielded an IC50 of less than 1 µM.
